# Where a chain is given by its changes, count along the chain named.
# Tests used:
# Assay in all cases: nanoDSF protein stability in presence of CL or β-OG
# Type in all cases: binding
# CPT II variant P50H = molecular target: T1, CPT II variant P50H (Homo sapiens, UniProt P23786, P50H)
# T1 construct: made in house; host or cells: Escherichia coli BL21Gold DE
# T1 sequence (P23786 26-658 P50H): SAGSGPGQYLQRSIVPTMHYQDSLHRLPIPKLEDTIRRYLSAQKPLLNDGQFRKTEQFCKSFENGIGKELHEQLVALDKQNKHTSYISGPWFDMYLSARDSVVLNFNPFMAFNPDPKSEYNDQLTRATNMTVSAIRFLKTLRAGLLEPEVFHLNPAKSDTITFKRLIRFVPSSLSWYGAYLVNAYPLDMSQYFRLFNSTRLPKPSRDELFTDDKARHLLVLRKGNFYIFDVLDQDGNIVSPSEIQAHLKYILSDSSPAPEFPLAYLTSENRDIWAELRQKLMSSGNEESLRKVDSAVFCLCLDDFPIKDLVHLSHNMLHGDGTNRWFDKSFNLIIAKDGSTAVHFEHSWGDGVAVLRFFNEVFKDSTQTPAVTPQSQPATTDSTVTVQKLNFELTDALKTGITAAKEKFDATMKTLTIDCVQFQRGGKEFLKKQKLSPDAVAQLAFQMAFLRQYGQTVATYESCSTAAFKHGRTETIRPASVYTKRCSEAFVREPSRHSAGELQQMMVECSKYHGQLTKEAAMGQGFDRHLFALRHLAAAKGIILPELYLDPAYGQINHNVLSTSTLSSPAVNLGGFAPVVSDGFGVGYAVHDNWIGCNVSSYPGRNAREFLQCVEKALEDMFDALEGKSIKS
# Method: (§1) NanoDSF is a standard method for the investigation of the folding/unfolding of proteins and the interaction of proteins with effectors/ligands/substrates
# (§2) The protein stability was investigated applying nano differential scanning fluorimetry (nanoDSF) using a protein concentration of 1 mg/mL in assay buffer. […] The heating rate has been set to 1 °C per min. A heating ramp from 15 to 95 °C was determined. The nanoDSF data were obtained using a Prometheus NT.48 device. First derivatives were calculated using PR.ThermControl software (NanoTemper Technologies GmbH, Munich, Germany). Experiments were performed at least three times independently as double determination.
# CPT II variant S113L = molecular target: T2, CPT II variant S113L (Homo sapiens, UniProt P23786, S113L)
# T2 construct: made in house; host or cells: Escherichia coli BL21Gold DE
# T2 sequence (P23786 26-658 S113L): T1 sequence (P23786 26-658 P50H) with H25P, S88L
# Method: as §1, §2
# CPT II WT = molecular target: T3, CPT II WT (Homo sapiens, UniProt P23786)
# T3 construct: made in house; host or cells: Escherichia coli BL21Gold DE
# T3 sequence (P23786 26-658): T1 sequence (P23786 26-658 P50H) with H25P
# Method: as §1, §2
# CPT II variant Y479F = molecular target: T4, CPT II variant Y479F (Homo sapiens, UniProt P23786, Y479F)
# T4 construct: made in house; host or cells: Escherichia coli BL21Gold DE
# T4 sequence (P23786 26-658 Y479F): T1 sequence (P23786 26-658 P50H) with H25P, Y454F
# Method: as §1, §2
# [1] = reference TM of WT in buffer (ΔTM = 0 °C)
substance,measurement,setting,value
Cardiolipin [CL],Increase of ΔTM-value due to the addition of CL,CPT II variant P50H; 0.25 mM CL,+13 °C
same,TM in Buffer with 0.25 mM CL,CPT II variant P50H; 1 mg/mL protein,40.2 ± 0.7 °C
same,∆TM in Buffer with 0.25 mM CL,CPT II variant P50H; [1],3.3 ± 0.1 °C
same,Increase of ΔTM-value due to the addition of CL,CPT II variant S113L; 0.25 mM CL,+10 °C
same,∆TM in Buffer with 0.25 mM CL,CPT II variant S113L; [1],6.5 ± 0.2 °C
same,Increase of ΔTM-value due to the addition of CL,CPT II WT; 0.25 mM CL,+10 °C
same,TM in Buffer with 0.25 mM CL,CPT II WT; 1 mg/mL protein,47.6 °C
same,∆TM in Buffer with 0.25 mM CL,CPT II WT; [1],10.6 °C
same,Increase of ΔTM-value due to the addition of CL,CPT II variant Y479F; 0.25 mM CL,+10 °C
same,TM in Buffer with 0.25 mM CL,CPT II variant Y479F; 1 mg/mL protein,45.9 ± 1.0 °C
same,∆TM in Buffer with 0.25 mM CL,CPT II variant Y479F; [1],9.0 ± 0.1 °C

# Reference: publication PMC8125234, “Cardiolipin Stabilizes and Increases Catalytic Efficiency of Carnitine Palmitoyltransferase II and Its Variants S113L, P50H, and Y479F” (International Journal of Molecular Sciences, 2021)
